Data reported in patent US11578061B2, “Inhibitors of LRRK2 kinase” (Halia Therapeutics, Inc., priority 2021, dated 2023).

Each compound was assayed against recombinant human LRRK2 (catalytic domain only [amino acids 970-2527], GST-tagged) (Homo sapiens (Human), UniProt Q5S007) (assay: LRRK2 Enzymatic Assay). Conditions: LRRKtide substrate, [32P]-ATP.
Type: biochemical
Procedure: LRRKtide substrate (peptide sequence RLGRDKYKTLRQIRQ, derived from human ezrin [amino acids 561-573], moesin [amino acids 539-553] and radixin [amino acids 558-570], obtained from SignalChem, catalogue #L10-58, reconstituted in 20 mM Tris-HCl at pH 7.5 to a final concentration of 1 mg/mL, assay concentration 20 μM) and recombinant human LRRK2 (catalytic domain only [amino acids 970-2527], GST-tagged, expressed in insect cells, obtained from ThermoFisher Scientific, catalogue #PV4874, 0.35 mg/mL, assay concentration 30 nM) were mixed in assay buffer (20 mM Hepes pH 7.5, 10 mM MgCl2, 1 mM EGTA, 0.02% Brij35, 0.02 mg/ml BSA, 0.1 mM Na3VO4, 2 mM DTT, 1% DMSO). Compounds of interest (in DMSO, serial 3-fold dilution from 10 μM to 0.5 nM) or control (1% DMSO) were dispensed into the kinase reaction mixture by Acoustic technology (Echo550; nanoliter range). After incubation at room temperature for 20 minutes, the kinase reaction was initiated by addition of [^32P]-ATP (Specific activity 10 μCi/μl) and the mixture was incubated at room temperature for 2 hours. The reaction was then stopped by spotting the reaction mixture on strips of phosphocellulose P81 paper. Following washing, the radioactivity of the P81 paper was measured and kinase activity data were expressed as the percent remaining kinase activity in test samples compared to vehicle (dimethyl sulfoxide) reactions. IC50 values and curve fits were obtained using Prism (GraphPad Software).

Sequence of recombinant human LRRK2 (catalytic domain only [amino acids 970-2527], GST-tagged) (Q5S007 970-2527): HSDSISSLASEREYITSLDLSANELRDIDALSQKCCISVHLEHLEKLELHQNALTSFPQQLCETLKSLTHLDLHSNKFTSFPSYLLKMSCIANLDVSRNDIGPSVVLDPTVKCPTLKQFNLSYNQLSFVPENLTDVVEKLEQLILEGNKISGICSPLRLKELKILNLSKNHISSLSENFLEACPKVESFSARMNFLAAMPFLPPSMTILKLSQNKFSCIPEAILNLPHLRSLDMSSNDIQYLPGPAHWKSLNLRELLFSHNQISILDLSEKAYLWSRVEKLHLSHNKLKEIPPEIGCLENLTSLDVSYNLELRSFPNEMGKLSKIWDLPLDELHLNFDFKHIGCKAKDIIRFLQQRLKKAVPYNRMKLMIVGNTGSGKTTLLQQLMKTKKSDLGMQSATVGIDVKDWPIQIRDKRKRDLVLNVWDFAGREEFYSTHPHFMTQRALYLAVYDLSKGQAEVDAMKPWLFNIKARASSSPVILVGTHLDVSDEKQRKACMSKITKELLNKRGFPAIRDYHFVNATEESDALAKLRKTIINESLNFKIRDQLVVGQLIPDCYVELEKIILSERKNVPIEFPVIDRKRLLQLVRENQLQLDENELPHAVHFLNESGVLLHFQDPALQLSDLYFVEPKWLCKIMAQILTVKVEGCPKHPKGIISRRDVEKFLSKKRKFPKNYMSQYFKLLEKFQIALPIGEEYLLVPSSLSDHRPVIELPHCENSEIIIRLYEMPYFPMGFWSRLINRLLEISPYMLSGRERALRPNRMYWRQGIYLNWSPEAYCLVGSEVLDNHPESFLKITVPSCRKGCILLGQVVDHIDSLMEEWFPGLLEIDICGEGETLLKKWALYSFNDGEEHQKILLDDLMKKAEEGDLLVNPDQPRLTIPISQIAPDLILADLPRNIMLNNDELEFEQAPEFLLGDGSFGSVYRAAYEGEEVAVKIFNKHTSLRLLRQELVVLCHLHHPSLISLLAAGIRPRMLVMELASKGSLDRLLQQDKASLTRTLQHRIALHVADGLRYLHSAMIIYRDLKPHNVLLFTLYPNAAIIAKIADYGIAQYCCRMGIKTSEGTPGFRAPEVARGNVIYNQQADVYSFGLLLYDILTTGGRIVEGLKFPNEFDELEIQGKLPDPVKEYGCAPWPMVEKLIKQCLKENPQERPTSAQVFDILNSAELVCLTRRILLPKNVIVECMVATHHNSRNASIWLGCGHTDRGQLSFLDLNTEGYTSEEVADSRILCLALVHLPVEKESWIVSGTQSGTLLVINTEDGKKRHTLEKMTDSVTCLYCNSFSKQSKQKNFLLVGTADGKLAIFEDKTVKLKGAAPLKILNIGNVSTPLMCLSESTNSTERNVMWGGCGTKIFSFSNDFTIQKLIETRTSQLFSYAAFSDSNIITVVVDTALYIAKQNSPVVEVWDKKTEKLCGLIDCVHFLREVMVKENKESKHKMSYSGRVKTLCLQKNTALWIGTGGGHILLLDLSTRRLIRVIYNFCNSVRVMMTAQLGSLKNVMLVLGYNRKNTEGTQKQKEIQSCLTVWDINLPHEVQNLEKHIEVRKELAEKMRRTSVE

Row | IC50 | Structure (SMILES)
1 | < 50 nM | CN[C@H]1CC[C@H](COc2nc(Nc3ccc(N4CCOCC4)cc3)ncc2OC)CC1 [Example 35, 5-methoxy-4-(((1R,4R)-4-(methylamino)cyclo-hexyl)methoxy)-N-(4-morpholinophenyl) pyrimidin-2-amine]
2 | < 50 nM | CN[C@H]1CC[C@H](COc2nc(Nc3cc(F)c(C(=O)N4CCOCC4)cc3OC)ncc2OC)CC1 [Example 36]
3 | < 50 nM | CN[C@H]1CC[C@H](COc2nc(Nc3cn(C(C)(C)C#N)nc3C)ncc2OC)CC1 [Example 37, 2-(4-((5-methoxy-4-(((1R,4R)-4-(methylamino)cyclo-hexyl)methoxy)py-rimidin-2-yl)amino)-3-methyl-1H-pyrazol-1-yl)-2-methylpropanenitrile]
4 | < 50 nM | CN[C@H]1CC[C@H](COc2nc(Nc3ccc(N4CCOCC4)cc3)ncc2Cl)CC1 [Example 38, 5-chloro-4-(((1R,4R)-4-(methylamino)cyclo-hexyl)methoxy)-N-(4-morpholinophenyl) pyrimidin-2-amine]
5 | < 50 nM | CN[C@H]1CC[C@H](COc2nc(Nc3cn(C(C)(C)C#N)nc3C)ncc2Cl)CC1 [Example 39, 2-(4-((5-chloro-4-(((1R,4R)-4-(methylamino)cyclo-hexyl)methoxy)py-rimidin-2-yl)amino)-3-methyl-1H-pyrazol-1-yl)-2-methylpropanenitrile]

The next lines start with the compound.

Row | Structure (SMILES) | IC50
6 | Cc1nn(C2CC(C#N)C2)cc1Nc1ncc(Cl)c(OCC2CCNCC2F)n1 (centres unmarked) [Example 26, 3-(4-((5-chloro-4-((3-fluoropiperidin-4-yl)methoxy)pyrimidin-2-yl)amino)-3-methyl-1H-pyrazol-1-yl)cyclobutane-1-carbonitrile] | 50 to 200 nM
7 | Cc1nn(C(C)(C)C#N)cc1Nc1ncc(Cl)c(OCC2CNC2)n1 [Example 27, 2-(4-((4-(azetidin-3-ylmethoxy)-5-chloropyrimidin-2-yl)amino)-3-methyl-1H-pyrazol-1-yl)-2-methylpropanenitrile] | > 400 nM
8 | Cc1nn(C(C)(C)C#N)cc1Nc1ncc(Cl)c(OCC2CC3(CNC3)C2)n1 [Example 28, 2-(4-((4-((2-azaspiro[3.3]heptan-6-yl)methoxy)-5-chloropyrimidin-2-yl)amino)-3-methyl-1H-pyrazol-1-yl)-2-methylpropanenitrile] | < 50 nM
9 | Fc1cnc(Nc2ccc(N3CCOCC3)cc2)nc1OCC1CCNCC1(F)F (centres unmarked) [Example 29, 4-((3,3-difluoropiperidin-4-yl)methoxy)-5-fluoro-N-(4-morpholinophenyl) pyrimidin-2-amine] | < 50 nM
10 | C[C@@H]1CN(c2ccc(Nc3ncc(F)c(OCC4CCNCC4(F)F)n3)cc2)C[C@H](C)O1 (stereo partly drawn) [Example 30, 4-((3,3-difluoropiperidin-4-yl)methoxy)-N-(4-((2S,6R)-2,6-dimethylmorpholino)phenyl)-5-fluoropyrimidin-2-amine] | < 50 nM
11 | CN[C@H]1CC[C@H](COc2ccnc(Nc3ccc(N4CCOCC4)cc3)n2)CC1 [Example 31, 4-(((1R,4R)-4-(methylamino)cyclo-hexyl)methoxy)-N-(4-morpholinophenyl) pyrimidin-2-amine] | < 50 nM
12 | CN[C@H]1CC[C@H](COc2ccnc(Nc3cn(C(C)(C)C#N)nc3C)n2)CC1 [Example 32, 2-methyl-2-(3-methyl-4-((4-(((1R,4R)-4-(methylamino)cyclo-hexyl)methoxy)pyrimidin-2-yl)amino)-1H-pyrazol-1-yl)propanenitrile] | < 50 nM
13 | CN[C@H]1CC[C@H](COc2ccnc(Nc3cnn(C(C)C)c3)n2)CC1 [Example 33] | > 400 nM
14 | CN[C@H]1CC[C@H](COc2ccnc(Nc3cc(F)c(C(=O)N4CCOCC4)cc3OC)n2)CC1 [Example 34, (2-fluoro-5-methoxy-4-((4-(((1R,4R)-4-(methylamino)cyclo-hexyl)methoxy)py-rimidin-2-yl)amino)phenyl) (morpholino) methanone] | 50 to 200 nM
